Consider eight compounds from patent US20240269139A1, “COMPOUNDS FOR TARGETED PROTEIN DEGRADATION OF KINASES” (DANA-FARBER CANCER INSTITUTE, INC., priority 2020, published 2024).

Read-outs that look alike come from different tables or passages of the source.

What all share (assay type): cell-based
In experiment [1] the target is protein kinases (human kinome) (Homo sapiens, UniProt Q16832).
The target of experiment [2] is T1, protein kinases (human kinome) (Homo sapiens, UniProt P53778).
T1 sequence (P53778 1-367): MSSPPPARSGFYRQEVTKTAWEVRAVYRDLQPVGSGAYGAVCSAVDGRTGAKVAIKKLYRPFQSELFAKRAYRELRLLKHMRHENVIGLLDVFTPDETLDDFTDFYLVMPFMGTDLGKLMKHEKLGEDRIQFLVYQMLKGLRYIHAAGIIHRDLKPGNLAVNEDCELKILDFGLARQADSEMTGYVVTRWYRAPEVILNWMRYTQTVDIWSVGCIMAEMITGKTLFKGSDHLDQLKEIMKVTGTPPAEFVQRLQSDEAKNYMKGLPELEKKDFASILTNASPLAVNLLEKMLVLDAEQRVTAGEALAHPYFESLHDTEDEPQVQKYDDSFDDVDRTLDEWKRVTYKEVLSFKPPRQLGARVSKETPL
The settings on record: for logFC MAPK12 (P53778): direction of change down; for logFC: MAPK12 (P53778).

Experiment [3] has as its target protein kinases (human kinome) (Homo sapiens, UniProt P45983). The conditions noted are these: for logFC MAPK8 (P45983): Experiment wp152.
Experiment [4] concerns the target protein kinases (human kinome) (Homo sapiens, UniProt Q6P5Z2).
For experiment [5], the target named is protein kinases (human kinome) (Homo sapiens, UniProt O75460). The conditions noted are these: experiment wp076.
Chain of protein kinases (human kinome) (Homo sapiens, UniProt O75460) (O75460 19-977): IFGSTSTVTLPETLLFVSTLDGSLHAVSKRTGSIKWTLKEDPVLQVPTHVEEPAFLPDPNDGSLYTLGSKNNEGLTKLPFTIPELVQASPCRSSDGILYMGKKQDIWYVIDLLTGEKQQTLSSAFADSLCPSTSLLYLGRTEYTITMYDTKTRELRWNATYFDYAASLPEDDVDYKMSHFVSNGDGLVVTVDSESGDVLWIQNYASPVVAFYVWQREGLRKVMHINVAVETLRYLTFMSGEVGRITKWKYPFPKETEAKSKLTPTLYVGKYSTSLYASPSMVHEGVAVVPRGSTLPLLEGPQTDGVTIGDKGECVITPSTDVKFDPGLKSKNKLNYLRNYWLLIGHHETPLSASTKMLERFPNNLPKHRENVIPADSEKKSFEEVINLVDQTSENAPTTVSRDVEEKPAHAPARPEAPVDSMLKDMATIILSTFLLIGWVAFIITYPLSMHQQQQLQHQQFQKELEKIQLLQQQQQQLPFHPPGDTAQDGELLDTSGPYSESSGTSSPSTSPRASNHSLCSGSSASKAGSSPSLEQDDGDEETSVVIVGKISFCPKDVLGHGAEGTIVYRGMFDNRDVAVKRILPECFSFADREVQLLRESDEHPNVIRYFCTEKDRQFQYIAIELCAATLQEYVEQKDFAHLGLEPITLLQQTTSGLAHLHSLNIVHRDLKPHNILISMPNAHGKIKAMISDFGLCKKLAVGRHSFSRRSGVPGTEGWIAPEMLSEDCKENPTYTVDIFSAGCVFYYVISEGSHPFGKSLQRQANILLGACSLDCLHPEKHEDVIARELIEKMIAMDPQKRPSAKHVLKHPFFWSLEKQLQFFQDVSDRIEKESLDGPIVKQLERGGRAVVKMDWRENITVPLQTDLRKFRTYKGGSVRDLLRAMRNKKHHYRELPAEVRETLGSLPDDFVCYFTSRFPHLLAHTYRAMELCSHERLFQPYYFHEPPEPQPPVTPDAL
Experiment [6] deals with T2, protein kinases (human kinome) (Homo sapiens, UniProt Q13163).
T2 sequence (Q13163 1-448): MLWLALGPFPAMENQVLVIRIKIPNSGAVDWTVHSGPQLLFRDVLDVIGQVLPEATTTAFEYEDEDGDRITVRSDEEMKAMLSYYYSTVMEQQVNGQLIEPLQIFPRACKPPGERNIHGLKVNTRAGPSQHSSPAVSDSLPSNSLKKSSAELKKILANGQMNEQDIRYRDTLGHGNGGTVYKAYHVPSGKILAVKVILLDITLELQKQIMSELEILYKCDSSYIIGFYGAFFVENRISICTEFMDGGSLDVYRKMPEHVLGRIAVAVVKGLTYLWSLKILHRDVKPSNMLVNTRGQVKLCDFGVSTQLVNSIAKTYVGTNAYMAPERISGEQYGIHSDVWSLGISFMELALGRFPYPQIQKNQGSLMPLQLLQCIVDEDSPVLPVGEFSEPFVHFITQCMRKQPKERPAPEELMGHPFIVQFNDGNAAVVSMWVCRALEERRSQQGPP
The settings on record: experiment wp071.

For experiment [7], the target named is protein kinases (human kinome) (Homo sapiens, UniProt Q86Z02). The settings on record: experiment wp133, 4 hr.
Chain of protein kinases (human kinome) (Homo sapiens, UniProt Q86Z02) (Q86Z02 whole entry): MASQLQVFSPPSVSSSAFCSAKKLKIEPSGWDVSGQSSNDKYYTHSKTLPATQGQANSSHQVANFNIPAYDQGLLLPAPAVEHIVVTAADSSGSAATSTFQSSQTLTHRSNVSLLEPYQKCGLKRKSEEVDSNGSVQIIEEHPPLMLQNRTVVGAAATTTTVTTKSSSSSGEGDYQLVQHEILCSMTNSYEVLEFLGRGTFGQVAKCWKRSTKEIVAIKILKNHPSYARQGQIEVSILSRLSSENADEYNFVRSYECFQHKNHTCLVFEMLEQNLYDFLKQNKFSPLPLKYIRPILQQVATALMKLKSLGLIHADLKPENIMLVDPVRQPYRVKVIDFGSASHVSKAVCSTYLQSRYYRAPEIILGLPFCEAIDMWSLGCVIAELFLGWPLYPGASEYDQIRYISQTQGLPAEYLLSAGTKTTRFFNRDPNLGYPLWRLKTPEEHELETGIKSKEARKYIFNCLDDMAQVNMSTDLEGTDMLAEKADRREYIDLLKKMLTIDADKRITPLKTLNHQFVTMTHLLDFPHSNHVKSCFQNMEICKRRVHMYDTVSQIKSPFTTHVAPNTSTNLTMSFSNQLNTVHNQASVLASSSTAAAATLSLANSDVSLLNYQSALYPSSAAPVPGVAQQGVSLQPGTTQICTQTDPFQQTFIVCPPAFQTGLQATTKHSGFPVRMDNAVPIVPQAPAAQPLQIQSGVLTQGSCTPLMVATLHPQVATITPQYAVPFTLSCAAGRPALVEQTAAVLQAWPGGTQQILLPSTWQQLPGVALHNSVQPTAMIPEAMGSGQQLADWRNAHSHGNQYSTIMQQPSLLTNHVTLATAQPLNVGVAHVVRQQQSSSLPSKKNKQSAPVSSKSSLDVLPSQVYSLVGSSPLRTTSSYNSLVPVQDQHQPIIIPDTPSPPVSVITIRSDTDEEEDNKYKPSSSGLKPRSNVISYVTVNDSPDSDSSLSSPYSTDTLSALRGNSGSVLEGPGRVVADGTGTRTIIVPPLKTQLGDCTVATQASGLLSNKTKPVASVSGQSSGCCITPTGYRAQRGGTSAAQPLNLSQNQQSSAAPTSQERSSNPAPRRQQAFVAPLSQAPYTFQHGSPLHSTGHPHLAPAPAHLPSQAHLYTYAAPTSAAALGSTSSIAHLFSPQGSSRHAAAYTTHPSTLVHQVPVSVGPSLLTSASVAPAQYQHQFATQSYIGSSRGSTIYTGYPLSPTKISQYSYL
Experiment [8] concerns the target protein kinases (human kinome) (Homo sapiens, UniProt P51957). The conditions noted are these: experiment wp146.
Experiment [9] concerns the target protein kinases (human kinome) (Homo sapiens, UniProt P51956). The conditions noted are these: experiment wp146.
Experiment [10] has as its target T3, protein kinases (human kinome) (Homo sapiens, UniProt Q13043).
T3 sequence (Q13043 1-487): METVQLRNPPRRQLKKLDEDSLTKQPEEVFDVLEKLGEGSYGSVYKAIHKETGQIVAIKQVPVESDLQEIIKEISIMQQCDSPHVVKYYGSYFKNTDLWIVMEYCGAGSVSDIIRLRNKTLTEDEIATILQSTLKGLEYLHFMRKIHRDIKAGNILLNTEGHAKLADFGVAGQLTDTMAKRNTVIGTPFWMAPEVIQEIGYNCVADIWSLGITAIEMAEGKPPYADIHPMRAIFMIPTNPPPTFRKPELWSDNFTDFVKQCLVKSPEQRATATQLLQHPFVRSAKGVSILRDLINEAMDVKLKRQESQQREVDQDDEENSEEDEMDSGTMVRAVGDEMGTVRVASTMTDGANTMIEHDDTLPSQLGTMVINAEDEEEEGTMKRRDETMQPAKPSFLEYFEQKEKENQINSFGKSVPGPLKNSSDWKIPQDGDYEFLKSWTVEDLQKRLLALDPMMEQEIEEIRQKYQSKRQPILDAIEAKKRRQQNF
The settings on record: for logFC: STK4 (Q13043-1).

The target of experiment [11] is protein kinases (human kinome) (Homo sapiens, UniProt P41743). The settings on record: experiment wp056.
Chain of protein kinases (human kinome) (Homo sapiens, UniProt P41743) (P41743 whole entry): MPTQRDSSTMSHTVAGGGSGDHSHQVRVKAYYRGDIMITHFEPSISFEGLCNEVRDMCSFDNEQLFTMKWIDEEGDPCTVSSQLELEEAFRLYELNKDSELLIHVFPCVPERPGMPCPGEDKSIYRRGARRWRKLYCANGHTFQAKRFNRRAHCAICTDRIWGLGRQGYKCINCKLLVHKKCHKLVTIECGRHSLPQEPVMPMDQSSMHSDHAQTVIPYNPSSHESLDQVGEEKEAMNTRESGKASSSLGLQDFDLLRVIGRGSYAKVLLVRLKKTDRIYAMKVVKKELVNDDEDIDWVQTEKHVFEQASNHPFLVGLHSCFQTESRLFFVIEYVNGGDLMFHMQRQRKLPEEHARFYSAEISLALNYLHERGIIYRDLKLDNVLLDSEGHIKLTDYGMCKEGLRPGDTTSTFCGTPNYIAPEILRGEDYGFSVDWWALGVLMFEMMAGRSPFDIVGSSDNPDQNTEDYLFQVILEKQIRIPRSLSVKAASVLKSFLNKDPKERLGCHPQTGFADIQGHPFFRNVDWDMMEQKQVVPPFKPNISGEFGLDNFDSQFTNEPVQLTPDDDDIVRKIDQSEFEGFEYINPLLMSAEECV

Chain of protein kinases (human kinome) (Homo sapiens, UniProt P45983) (P45983 whole entry): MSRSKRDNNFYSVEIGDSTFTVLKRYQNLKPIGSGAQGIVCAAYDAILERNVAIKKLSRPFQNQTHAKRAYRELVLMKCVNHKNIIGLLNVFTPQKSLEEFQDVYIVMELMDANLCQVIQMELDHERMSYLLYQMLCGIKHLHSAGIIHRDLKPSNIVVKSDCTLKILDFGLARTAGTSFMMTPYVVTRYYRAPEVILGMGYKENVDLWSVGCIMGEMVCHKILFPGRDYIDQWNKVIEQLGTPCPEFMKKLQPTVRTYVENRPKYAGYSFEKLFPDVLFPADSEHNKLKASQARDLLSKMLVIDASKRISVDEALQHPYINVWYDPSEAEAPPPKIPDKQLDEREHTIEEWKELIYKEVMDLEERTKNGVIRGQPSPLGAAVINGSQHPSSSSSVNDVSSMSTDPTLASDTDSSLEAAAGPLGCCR
Chain of protein kinases (human kinome) (Homo sapiens, UniProt P51956) (P51956 whole entry): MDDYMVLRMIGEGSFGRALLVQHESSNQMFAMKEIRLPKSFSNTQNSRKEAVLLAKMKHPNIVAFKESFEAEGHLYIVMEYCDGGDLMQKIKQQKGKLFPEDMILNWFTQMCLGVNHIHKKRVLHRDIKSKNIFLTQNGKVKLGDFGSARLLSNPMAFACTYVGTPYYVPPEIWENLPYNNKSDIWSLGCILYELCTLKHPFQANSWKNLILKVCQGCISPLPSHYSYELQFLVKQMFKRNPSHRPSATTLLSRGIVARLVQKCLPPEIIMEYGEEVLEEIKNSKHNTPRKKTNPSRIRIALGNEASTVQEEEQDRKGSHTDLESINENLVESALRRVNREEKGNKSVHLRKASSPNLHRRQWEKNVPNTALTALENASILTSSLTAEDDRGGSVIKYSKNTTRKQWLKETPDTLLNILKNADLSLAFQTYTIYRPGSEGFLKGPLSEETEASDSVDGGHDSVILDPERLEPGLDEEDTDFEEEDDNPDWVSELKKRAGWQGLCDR
Chain of protein kinases (human kinome) (Homo sapiens, UniProt Q6P5Z2) (Q6P5Z2 whole entry): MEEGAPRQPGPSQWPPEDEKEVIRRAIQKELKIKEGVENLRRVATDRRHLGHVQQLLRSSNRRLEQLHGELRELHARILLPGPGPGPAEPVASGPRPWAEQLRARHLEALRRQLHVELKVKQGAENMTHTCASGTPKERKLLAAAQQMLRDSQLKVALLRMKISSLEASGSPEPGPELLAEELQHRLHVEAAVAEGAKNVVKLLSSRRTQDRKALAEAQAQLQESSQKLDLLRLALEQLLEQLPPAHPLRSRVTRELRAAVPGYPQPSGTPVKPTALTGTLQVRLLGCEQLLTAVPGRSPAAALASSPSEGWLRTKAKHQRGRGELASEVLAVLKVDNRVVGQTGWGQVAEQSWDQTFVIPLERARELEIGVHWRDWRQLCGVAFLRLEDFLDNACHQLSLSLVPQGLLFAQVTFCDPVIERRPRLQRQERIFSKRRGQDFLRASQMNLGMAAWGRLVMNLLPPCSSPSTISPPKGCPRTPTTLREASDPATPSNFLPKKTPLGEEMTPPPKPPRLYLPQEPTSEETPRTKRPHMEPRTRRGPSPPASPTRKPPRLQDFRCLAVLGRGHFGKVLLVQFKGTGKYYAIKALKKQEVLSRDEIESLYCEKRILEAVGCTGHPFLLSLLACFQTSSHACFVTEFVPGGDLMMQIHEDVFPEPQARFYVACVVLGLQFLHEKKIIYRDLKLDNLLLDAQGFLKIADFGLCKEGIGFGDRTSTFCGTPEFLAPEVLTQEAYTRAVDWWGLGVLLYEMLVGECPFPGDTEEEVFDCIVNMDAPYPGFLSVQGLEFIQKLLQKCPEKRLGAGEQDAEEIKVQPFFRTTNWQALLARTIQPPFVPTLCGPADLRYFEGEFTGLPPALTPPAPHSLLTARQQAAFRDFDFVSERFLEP

Turning to `Cc1ccc(NC(=O)c2cccc(C(F)(F)F)c2)cc1N1Cc2cnc(Nc3ccc(N4CCN(Cc5cn(CCCCCOc6cccc7c6C(=O)N(C6CCC(=O)NC6=O)C7=O)nn5)CC4)nc3)nc2N(C)C1=O` (centres unmarked) [DB0646, N-(3-(7-((6-(4-((1-(5-((2-(2,6-Dioxopiperidin-3-yl)-1,3-dioxoisoindolin-4-yl)oxy)pentyl)-1H-1,2,3-triazol-4-yl)methyl)piperazin-1-v)pyridin-3-yl)amino)-1-methyl-2-oxo-1,4-dihydropyrimido[4,5-d]pyrimidin-3(2H)-yl)-4-methylphenyl)-3-(trifluoromethyl)benzamide], the “logFC DDR2 (Q16832)” value in [1] (Experiment wp105, direction of change down) is on record as −0.4741. The “logFC DDR2” value in experiment [1] (protein DDR2 (Q16832), experiment wp105, down) is −0.4741. In addition, the “logFC MAPK12 (P53778)” value in experiment [2] (Experiment wp105) is listed as −0.5939; in [2] (experiment wp172), −1.457. Further, the logFC in experiment [2] (experiment wp105) is −0.5939; in [2] (experiment wp172), −1.457. In addition, the “logFC MAPK8 (P45983)” value in [3] (direction down) and in experiment [3] (direction of change down) was −0.8433 throughout. Further, the “logFC MAPK8 (P45983-1)” value in experiment [3] (Experiment wp172, direction down) is listed as −0.376; in experiment [3] (experiment wp172, direction of change down), −0.376.
With `Cc1ncsc1-c1ccc([C@H](C)NC(=O)[C@@H]2C[C@@H](O)CN2C(=O)[C@@H](NC(=O)CCOCCOCCN2CCN(c3ccc(Nc4ncc(Cl)c(Nc5ccccc5S(=O)(=O)C(C)C)n4)cc3)CC2)C(C)(C)C)cc1` [FMF.06.098.1], the “logFC PKN3 (Q6P5Z2)” value in experiment [4] (Experiment wp114, direction of change down) is −0.451. Moreover, the “logFC PKN3” value in [4] (protein PKN3 (Q6P5Z2), experiment wp114, down) was −0.451.
Turning to `O=C1CCC(N2C(=O)c3cccc(NCCCCCCCCN4CCC(NC(=O)c5[nH]ncc5NC(=O)c5c(Cl)cccc5Cl)CC4)c3C2=O)C(=O)N1` (centres unmarked) [MFH.5.126.1], in experiment [5], the “logFC of ERN1 (O75460)” value is recorded as −0.4882. For the same compound, the “logFC ERN1” value in experiment [5] (protein ERN1 (O75460), down) is reported as −0.4882.
`Nc1ncnc2c1c(-c1ccc(Oc3ccccc3)cc1)nn2[C@H]1CC[C@H](N2CCN(CCOCCNC(=O)CNc3cccc4c3C(=O)N(C3CCC(=O)NC3=O)C4=O)CC2)CC1` (some centres unmarked) [SB1.G.181] came in with a logFC in experiment [6] (MAP2K5 (Q13163-1)) of −1.138. The “logFC of MAP2K5 (Q13163-1)” value in [6] is −1.138.
With `CC(C)S(=O)(=O)c1ccccc1Nc1nc(Nc2ccc(N3CCN(CCOCCNC(=O)CNc4cccc5c4C(=O)N(C4CCC(=O)NC4=O)C5=O)CC3)cc2)ncc1Cl` (centres unmarked) [SK.3.91], in experiment [7] (direction of change down), the “logFC HIPK1 (Q86Z02)” value is listed as −0.4009. Besides, the “logFC HIPK1” value in experiment [7] (protein HIPK1 (Q86Z02), down) is −0.4009.
Consider `Cc1cc(Nc2ncc(Br)c(Nc3cccc(F)c3C(N)=O)n2)ccc1S(=O)(=O)NCCOCCOCCOCCOCCNc1cccc2c1C(=O)N(C1CCC(=O)NC1=O)C2=O` (centres unmarked) [TMX.02.174], for which the “logFC NEK4 (P51957)” value in experiment [8] (direction of change down) is −0.9508. Besides, in experiment [8] (protein NEK4 (P51957), down), the “logFC NEK4” value is recorded as −0.9508. The “logFC NEK3 (P51956)” value in [9] (direction of change down) is given as −0.8497. In addition, the “logFC NEK3” value in [9] (protein NEK3 (P51956), down) is recorded as −0.8497.
Regarding `Nc1ncc(-c2ccc(S(=O)(=O)N(CCCNC(=O)CCOCCOCCOCCOCCOCCNc3cccc4c3C(=O)N(C3CCC(=O)NC3=O)C4=O)C3CC3)cc2)cc1-c1ccc2c(c1)CCNC2=O` (centres unmarked) [WH.10417.099], the “logFC of STK4 (Q13043-1)” value in [10] (Experiment wp103) is given as −0.7387; in [10] (Experiment wp107), −0.7188; in experiment [10] (Experiment wp172), −0.5983; in experiment [10] (experiment wp056), −0.7157. In addition, the logFC in [10] (experiment wp056) was −0.7157; in experiment [10] (experiment wp103), −0.7387; in experiment [10] (experiment wp107) it was −0.7188; in experiment [10] (experiment wp172), −0.5983.
Take `C=CCn1c(=O)c2cnc(Nc3ccc(N4CCN(CCCNc5cccc6c5C(=O)N(C5CCC(=O)NC5=O)C6=O)CC4)cc3)nc2n1-c1cccc(C(C)(C)O)n1` (centres unmarked) [ZNL.02.096]: in [11] (direction of change down), the “logFC PRKCI (P41743)” value is −0.5365. Besides, the “logFC PRKCI” value in experiment [11] (protein PRKCI (P41743), down) is reported as −0.5365.
